The text below walks through data of EP0356325A1, “Pharmaceutical composition containing a slightly water-soluble active substance and at least a glyceride gelled by at least a cellulose polymer” (Aiache, Jean-Marc, priority 1988, dated 1990).

This data set is described as follows: Doxycycline base content and epimer contents after storage (Tableau 2). Format: physicochemical. The source says:
En outre, le tableau 2 présente une comparaison des teneurs en épimères (en p. cent) de deux préparations contenant la doxycycline (sous forme hyclate), avec le principe actif ayant servi à leur formulation. La formulation testée correspond à un produit stable.

Setting [1] is: après 1 mois de conservation à 37°C (étuve sèche), p.cent of area under chromatographic peaks.
[2] abbreviates: après 3 mois de conservation à température ambiante, p.cent of area under chromatographic peaks.

Turning to `C[C@H]1c2cccc(O)c2C(=O)C2=C(O)[C@]3(O)C(=O)C(C(N)=O)=C(O)[C@@H](N(C)C)[C@@H]3[C@@H](O)[C@@H]21` [Doxycycline hyclate, hyclate de doxycycline], for the setting “après 1 mois de conservation à 37°C (étuve sèche)”, the Doxycycline base is on record as 858,2 mg/g. Also, under setting [1], the “6 Epidoxycycline” value is reported as 0,96 p.cent, the Déméclocycline was 1,99 p.cent and the Oxytétracycline is 0,65 p.cent. The Doxycycline base (après 3 mois de conservation à température ambiante) is 899,0 mg/g. For the same compound, under setting [2], the “6 Epidoxycycline” value is recorded as 0,30 p.cent, the Déméclocycline is given as 1,81 p.cent and the Oxytétracycline base was 0,43 p.cent.
